According to US9738652B2, “Spiro urea compounds as RSV antiviral compounds” (priority 2014, dated 2017):

Assays:
[1] = Cytotoxicity in HeLa cells (ATPlite, CC50) used for selectivity index; details: human
Description: The wells contain 0.05% DMSO per volume. Cells were incubated at 37° C. in a 5% CO2 atmosphere. […] In parallel, compounds were incubated for three days in a set of white 384-well microtiter plates (Corning) and the cytotoxicity of compounds in HeLa cells was determined by measuring the ATP content of the cells using the ATPlite kit (Perkin Elmer, Zaventem, Belgium) according to the manufacturer's instructions. The CC50 was defined as the 50% concentration for cytotoxicity.

rgRSV224 virus = assay: Antiviral activity: rgRSV224 (GFP) replication in HeLa cells; details: human respiratory syncytial virus, 72 h, read-out: RSV HELA pEC50 (converted)
Description: Black 384-well clear-bottom microtiter plates (Corning, Amsterdam, The Netherlands) were filled via acoustic drop ejection using the echo liquid handler (Labcyte, Sunnyvale, Calif.). 200 nL of compound stock solutions (100% DMSO) were transferred to the assay plates. 9 serial 4-fold dilutions of compound were made, creating per quadrant the same compound concentration. The assay was initiated by adding 10 μL of culture medium to each well (RPMI medium without phenol red, 10% FBS-heat inactivated, 0.04% gentamycin (50 mg/mL). All addition steps are done by using a multidrop dispenser (Thermo Scientific, Erembodegem, Belgium). Next, rgRSV224 virus (MOI=1) diluted in culture medium was added to the plates. rgRSV224 virus is an engineered virus that includes an additional GFP gene (Hallak L K, Spillmann D, Collins P L, Peeples M E. Glycosaminoglycan sulfation requirements for respiratory syncytial virus infection; Journal of virology (2000), 74(22), 10508-13) and was in-licensed from the NIH (Bethesda, Md., USA). Finally, 20 μL of a HeLa cell suspension (3,000 cells/well) were plated. Medium, virus- and mock-infected controls were included in each test. The wells contain 0.05% DMSO per volume. Cells were incubated at 37° C. in a 5% CO2 atmosphere. Three days post-virus exposure, viral replication was quantified by measuring GFP expression in the cells by an in house developed MSM laser microscope (Tibotec, Beerse, Belgium). The EC50 was defined as the 50% inhibitory concentration for GFP expression. In parallel, compounds were incubated for three days in a set of white 384-well microtiter plates (Corning) and the cytotoxicity of compounds in HeLa cells was determined by measuring the ATP content of the cells using the ATPlite kit (Perkin Elmer, Zaventem, Belgium) according to the manufacturer's instructions. The CC50 was defined as the 50% concentration for cytotoxicity.

SMILES	melting point [°C]	selectivity ratio at 3 days [1]	EC50 (rgRSV224 virus) [nM]
CNC(=O)N1CCC2(CC1)C(=O)N(Cc1nc3cc(Cl)ccc3n1CCCC#N)c1cnccc12 [Co. No. 26, 1′-[[5-chloro-1-(3-cyanopropyl)benzimidazol-2-yl]methyl]-N-methyl-2′-oxo-spiro[piperidine-4,3′-pyrrolo[2,3-c]pyridine]-1-carboxamide]	99.81	> 1.82e+06	0.055
CC(C)NC(=O)N1CCC2(CC1)C(=O)N(Cc1nc3cc(Cl)ccc3n1CCCC#N)c1cnccc12 [Co. No. 29, 1′-[[5-chloro-1-(3-cyanopropyl)benzimidazol-2-yl]methyl]-N-isopropyl-2′-oxo-spiro[piperidine-4,3′-pyrrolo[2,3-c]pyridine]-1-carboxamide]	–	> 4.11e+06	0.0245
